Measured values as given in article PMC3933301 (Journal of medicinal chemistry, 2013).
≈ marks a conversion by molar mass, not a printed value.

Tests used:
[1] = system: Mtb clinical strain TN587 (isoniazide-resistant); format: cell-based, Mycobacterium tuberculosis
[2] = system: Mtb clinical strain NHN382 (isoniazide-resistant); format: cell-based, Mycobacterium tuberculosis

Row | Structure (SMILES) | MIC, Mtb strain TN587 [1] | MIC, Mtb strain NHN382 [2]
1 | CCCCOC(=O)Nc1cc2nc(C3CCCCC3)[nH]c2cc1N(C)C [Compound 5f, 5-Butyloxycarbonylamino-2-cyclohexyl-6-N,N-dimethylamino-1H-benzo[d]imidazole] | 0.13 µg/mL (≈ 0.363 µM) | 
2 | NNC(=O)c1ccncc1 [INH, isoniazid, reference compound] | 0.25 µg/mL (≈ 1.82 µM) | 0.25 µg/mL (≈ 1.82 µM)
